Values quoted from earlier work as cited in patent US20050163837A1, “Rosiglitazone formulations” (priority 2003, published 2005).

Assays:
[1] = test system: animal models of type 2 diabetes

In the case of `CN(CCOc1ccc(CC2SC(=O)NC2=O)cc1)c1ccccn1` (stereo not drawn) [Rosiglitazone, 5-[4-[2-(N-methyl-N-(2-pyridyl)amino)ethoxy]benzyl]thiazolidine-2,4-dione], the “development of overt diabetes” value (mouse models of diabetes; mouse models) is listed as “prevent the development of overt diabetes”, the “blood glucose levels and hyperinsulinemia” value (mouse models of diabetes; several mouse models of diabetes) is listed as “reduce blood glucose levels and hyperinsulinemia” and the “induction of hypoglycemia or impaired glucose tolerance” value [1] is listed as “did not induce hypoglycemia or impaired glucose tolerance”.
